Experimental data taken from patent US11970494B2, “6-heteroaryloxy benzimidazoles and azabenzimidazoles as JAK2 inhibitors” (Ajax Therapeutics, Inc., priority 2021, dated 2024).

Assay: Caco2 Permeability Assay
Format: in vitro ADME
Settings: human; for efflux ratio at 2 h, 5 μM: pH 7.4, Caco-2, 5 μM, read-out: Efflux Ratio (ER); for Papp A→B at 2 h, 5 μM: pH 7.4, Caco-2, apical to basolateral
Procedure: Preparation of Caco-2 Cells: 50 μL and 25 mL of cell culture medium are added to each well of a Transwell® insert and reservoir, respectively. Then, the HTS Transwell® plates are incubated at 37° C., 5% CO2 for 1 hour before cell seeding. Caco-2 cell cells are diluted to 6.86×10^5 cells/mL with culture medium, and 50 μL of cell suspension are dispensed into the filter well of the 96-well HTS Transwell® plate. Cells are cultivated for 14-18 days in a cell culture incubator at 37° C., 5% CO2, 95% relative humidity. Cell culture medium is replaced every other day, beginning no later than 24 hours after initial plating.
Preparation of Stock Solutions: 10 mM stock solutions of test compounds are prepared in DMSO. The stock solutions of positive controls are prepared in DMSO at the concentration of 10 mM. Digoxin and propranolol are used as control compounds in this assay.
Assessment of Cell Monolayer Integrity: Medium is removed from the reservoir and each Transwell® insert and is replaced with prewarmed fresh culture medium. Transepithelial electrical resistance (TEER) across the monolayer is measured using Millicell Epithelial Volt-Ohm measuring system (Millipore, USA). The Plate is returned to the incubator once the measurement is done. The TEER value is calculated according to the following equation: TEER measurement (ohms)×Area of membrane (cm^2)=TEER value (ohm⋅cm^2). A TEER value greater than 230 ohm⋅cm^2 indicates a well-qualified Caco-2 monolayer.
Assay Procedure: The Caco-2 plate is removed from the incubator and washed twice with pre-warmed HBSS (10 mM HEPES, pH 7.4), and then incubated at 37° C. for 30 minutes. The stock solutions of control compounds are diluted in DMSO to get 1 mM solutions and then diluted with HBSS (10 mM HEPES, pH 7.4) to get 5 μM working solutions. The stock solutions of the test compounds are diluted in DMSO to get 1 mM solutions and then diluted with HBSS (10 mM HEPES and 4% BSA, pH 7.4) to get 5 μM working solutions. The final concentration of DMSO in the incubation system is 0.5%. To determine the rate of drug transport in the apical to basolateral direction. 75 μL of 5 μM working solutions of test compounds are added to the Transwell® insert (apical compartment) and the wells in the receiver plate (basolateral compartment) are filled with 235 μL of HBSS (10 mM HEPES and 4% BSA, pH 7.4). To determine the rate of drug transport in the basolateral to apical direction, 235 μL of 5 μM working solutions of test compounds are added to the receiver plate wells (basolateral compartment) and then the Transwell® inserts (apical compartment) are filled with 75 μL of HBSS (10 mM HEPES and 4% BSA, pH 7.4). Time 0 samples are prepared by transferring 50 μL of 5 μM working solution to wells of the 96-deepwell plate, followed by the addition of 200 μL cold methanol containing appropriate internal standards (IS). The plates are incubated at 37° C. for 2 hours. At the end of the incubation, 50 μL samples from donor sides (apical compartment for Ap→*Bl flux, and basolateral compartment for Bl→Ap) and receiver sides (basolateral compartment for Ap→Bl flux, and apical compartment for Bl→Ap) are transferred to wells of a new 96-well plate, followed by the addition of 4 volume of cold acetonitrile or methanol containing appropriate internal standards (IS). Samples are vortexed for 5 minutes and then centrifuged at 3,220 g for 40 minutes. An aliquot of 100 μL of the supernatant is mixed with an appropriate volume of ultra-pure water before LC-MS/MS analysis. To determine the Lucifer Yellow leakage after 2 hour transport period, stock solution of Lucifer yellow is prepared in ultra-pure water and diluted with HBSS (10 mM HEPES, pH 7.4) to reach the final concentration of 100 μM. 100 μL of the Lucifer yellow solution is added to each Transwell® insert (apical compartment), followed by filling the wells in the receiver plate (basolateral compartment) with 300 μL of HBSS (10 mM HEPES, pH 7.4). […]

Row | SMILES | efflux ratio at 2 h, 5 μM | Papp A→B at 2 h, 5 μM
1 | CC(=O)Nc1cc(Oc2cnc3nc(Nc4cc5n(n4)CCOCC5(C)C)n(C)c3c2C#N)ccn1 [Example I-118, N-(4-((7-cyano-2-((4,4-dimethyl-4,5,7,8-tetrahydropyrazolo[1,5-d][1,4]oxazepin-2-yl)amino)-1-methyl-1H-imidazo[4,5-b]pyridin-6-yl)oxy)pyridin-2-yl)acetamide] | 2 to 5 | 5 ×10⁻⁶ cm/s
2 | Cn1c(Nc2cc3n(n2)CCC32CCC2)nc2ncc(Oc3ccnc(NC(=O)C4CC4)c3)c(C#N)c21 [Example I-122, N-(4-((7-cyano-2-((5′,6′-dihydrospiro[cyclobutane-1,4′-pyrrolo[1,2-b]pyrazol]-2′-yl)amino)-1-methyl-1H-imidazo[4,5-b]pyridin-6-yl)oxy)pyridin-2-yl)cyclopropanecarboxamide] | 2 to 5 | 2 ×10⁻⁶ cm/s
3 | CCN1CCN(Cc2ccc(Nc3nc4ccc(Oc5ccnc(NC(C)=O)c5)cc4n3C)cc2C(F)(F)F)CC1 [Example R-1, reference compound] | 10 to 30 | 0.4 ×10⁻⁶ cm/s
